Measured values reported in PMC10721329, “Quisinostat is a brain-penetrant radiosensitizer in glioblastoma” (JCI Insight, 2023).
Several values for one entry are separate records, joined by “and”; a condition that tells them apart may be missing. Identical values can stand only once.

Experiments:
BT145 cells = test: QST + IR sulforhodamine B cytotoxicity assay; assay type: cell-based, human; conditions: replicates
Description: (§1) There is preclinical evidence that HDACis may be effective in enhancing the sensitivity of tumor cells to IR therapy ([24], [28]–[31]). We hypothesized that the accumulation of DNA damage induced by QST, in combination with IR, may synergistically reduce GSC viability. To examine this hypothesis, we treated 2 cell lines (BT145 and GB126) with increasing nanomolar doses of QST (10–1000 nM) and increasing doses of IR (2–4 Gy) (Figure 4, A and B). […] We then analyzed our combinatorial dose-response cell viability data using SynergyFinder, an application that assigns synergy scores using various major reference models ([32]).
(§2) GSCs were seeded in laminin-coated tissue culture–treated 96-well plates (clear bottom, white plate; Corning) at a density of 1000–5000 cells per well (cell line dependent) in GSC media. U87-MG were seeded using their normal growth conditions without laminin (10% bovine calf serum in DMEM). All cells were incubated at 37°C and allowed to adhere overnight. The next day, cells were treated with incremental concentrations of QST (Selleckchem; 0, 10, 25, 50, 100, 250, 500, and 1000 nM) diluted in media. Cells treated without QST were treated with DMSO diluted in media. Following treatment with QST, cells were grown for 3 to 5 days (cell line dependent), and cell viability was measured and quantified. All cell viability measurements were performed using the CellTiter-Glo luminescent cell viability assay (Promega) following the manufacturer’s instructions. For the sulforhodamine B colorimetric assay for cytotoxicity, the protocol was performed as described elsewhere ([33]). All cell viability results represent the mean of at least 3 biological replicates, each containing 3 technical replicates.

GB126 cells = test: QST + IR sulforhodamine B cytotoxicity assay; assay type: cell-based, human; conditions: replicates
Description: as §1, §2

[1] = Stability in mouse brain homogenate (perfused, non-perfused) at 37°C; assay type: in vitro ADME; conditions: 100 nM; for [QST], % of control: mouse brain homogenate, 37 C; for [QST], % of control / raw response (Data Point): replicates; for %stability ([QST], % of control, Mean) / raw response, Mean / raw response (Data Point): mouse brain, 37C
Description: Hydroxamic acid–based compounds have been reported to display poor stability and high plasma clearance due to the presence of arylesterases and carboxylesterases in rodent blood ([34]). Therefore, we measured the stability of QST in mouse plasma and brain to determine whether drug degradation occurred during our sample preparations and equilibrium dialyses for the determination of unbound drug level (performed at 37°C). […] QST degradation was also observed in mouse brain homogenate (Figure 6B). However, perfusion of mice before brain collection prevented rapid drug degradation in the brain matrix. […] Degradation of QST can also be constrained if plasma and brain samples are processed at 4°C (Supplemental Figure 4A). All subsequent sample preparations were therefore performed on ice-cold baths to avoid degradation of QST in our PK analyses. […] The observed stability is probably due to the absence of esterases in human matrices, which are responsible for degradation of QST ([34]). Because we employed QST in several in vitro studies (Figures 1–4), the stability of the molecule was also tested in the cell media used to culture GSCs (neurobasal medium; see Methods).
Stability Study in Mouse Plasma, Mouse Brain, Human Plasma, Human Brain, and Neural […]
The stability of QST was determined in BALB/c mouse plasma, male nude athymic perfused and nonperfused mouse brain homogenate (1:9 w/v of PBS; pH 7.4), human brain (obtained from VRL Eurofins) homogenate (1:4 w/v of PBS; pH 7.4), pooled human plasma (Innovative Research), and neurobasal media. QST stock solutions (1 mM) were prepared in acetonitrile, subsequently diluted in a 40% methanol mixture, and added t o the matrices to make final concentrations of 100 nM or 10 nM. Then 50 or 30 µL of either plasma or brain homogenate containing QST were aliquoted into 1.5-mL microcentrifuge tubes (Eppendorf) and were incubated at either 4 °C or 37 °C for 0, 2, 4, 6, 12, or 24 hours (n = 3 at each time point). […]
Plasma and brain […]
homogenate samples were stored at −80 °C until LC-MS/MS analysis. […]

[2] = Quisinostat log[nm] 1, 0 Gy, control 0 Gy = 1
[3] = Quisinostat log[nm] 1.39794, 0 Gy
[4] = Quisinostat log[nm] 1.39794, 2 Gy
[5] = Quisinostat log[nm] 1.39794, 4 Gy
[6] = Quisinostat log[nm] 1.69897, 0 Gy
[7] = Quisinostat log[nm] 1.69897, 2 Gy
[8] = Quisinostat log[nm] 1.69897, 4 Gy

SMILES: Cn1cc(CNCC2CCN(c3ncc(C(=O)NO)cn3)CC2)c2ccccc21 [QST, quisinostat]
- SRB assay, relative signal (BT145 cells; [2]): 0.6967 and 0.6385 and 0.6781
- SRB assay, relative signal (BT145 cells; Quisinostat log[nm] 1, 2 Gy): 0.3422 and 0.2636 and 0.3938
- SRB assay, relative signal (BT145 cells; Quisinostat log[nm] 1, 4 Gy): 0.2576 and 0.2273 and 0.1797
- SRB assay, relative signal (BT145 cells; [3]): 0.5611 and 0.5715 and 0.6072
- SRB assay, relative signal (BT145 cells; [4]): 0.3016 and 0.237 and 0.3379
- SRB assay, relative signal (BT145 cells; [5]): 0.251 and 0.1999 and 0.186
- SRB assay, relative signal (BT145 cells; [6]): 0.3909 and 0.4995 and 0.4801
- SRB assay, relative signal (BT145 cells; [7]): 0.2862 and 0.2318 and 0.3442
- SRB assay, relative signal (BT145 cells; [8]): 0.2294 and 0.2058 and 0.1789
- SRB assay, relative signal (BT145 cells; Quisinostat log[nm] 2, 0 Gy): 0.4525 and 0.4659 and 0.3488
- SRB assay, relative signal (BT145 cells; Quisinostat log[nm] 2, 2 Gy): 0.304 and 0.2255 and 0.2864
- SRB assay, relative signal (BT145 cells; Quisinostat log[nm] 2, 4 Gy): 0.2104 and 0.1978 and 0.1926
- SRB assay, relative signal (GB126 cells; [2]): 0.6958 and 0.7271 and 0.697
- SRB assay, relative signal (GB126 cells; Quisinostat log[nm] 1, 2 Gy): 0.4678 and 0.5322 and 0.5047
- SRB assay, relative signal (GB126 cells; Quisinostat log[nm] 1, 4 Gy): 0.3918 and 0.337 and 0.3993
- SRB assay, relative signal (GB126 cells; [3]): 0.6332 and 0.6836 and 0.5963
- SRB assay, relative signal (GB126 cells; [4]): 0.4122 and 0.4783 and 0.4726
- SRB assay, relative signal (GB126 cells; [5]): 0.3723 and 0.2821 and 0.3826
- SRB assay, relative signal (GB126 cells; [6]): 0.574 and 0.5854 and 0.5737
- SRB assay, relative signal (GB126 cells; [7]): 0.3752 and 0.4419 and 0.4352
- SRB assay, relative signal (GB126 cells; [8]): 0.3383 and 0.2983 and 0.3763
- SRB assay, relative signal (GB126 cells; Quisinostat log[nm] 2, 0 Gy): 0.4806 and 0.4569 and 0.5515
- SRB assay, relative signal (GB126 cells; Quisinostat log[nm] 2, 2 Gy): 0.3411 and 0.3753 and 0.4318
- SRB assay, relative signal (GB126 cells; Quisinostat log[nm] 2, 4 Gy): 0.3084 and 0.2397 and 0.3383
- [QST], % of control ([1]; Non-Perfused, 0 hours): 99.9% and 101.4% and 98.8%
- [QST], % of control ([1]; Non-Perfused, 2 hours): 90.9% and 101.4% and 87.2%
- [QST], % of control ([1]; Non-Perfused, 6 hours): 71.4% and 72.9% and 80.4%
- [QST], % of control ([1]; Non-Perfused, 24 hours): 46.8% and 49% and 47.5%
- [QST], % of control ([1]; Perfused, 0 hours): 103.7% and 102.4% and 93.9%
- [QST], % of control ([1]; Perfused, 2 hours): 98.2% and 99.9%
- [QST], % of control ([1]; Perfused, 6 hours): 98.2% and 97.3%
- [QST], % of control ([1]; Perfused, 24 hours): 85.9% (2×) and 82.9%
- %stability ([QST], % of control, Mean) ([1]; Non-perfused, 0 hrs): 100.0%
- raw response, Mean ([1]; Non-perfused, 0 hrs): 267333
- raw response (Data Point) ([1]; Non-perfused, 0 hrs): 267000 and 271000 and 264000
- %stability ([QST], % of control, Mean) ([1]; Non-perfused, 2 hrs): 93.1%
- raw response, Mean ([1]; Non-perfused, 2 hrs): 249000
- raw response (Data Point) ([1]; Non-perfused, 2 hrs): 243000 and 271000 and 233000
- %stability ([QST], % of control, Mean) ([1]; Non-perfused, 6 hrs): 74.9%
- raw response, Mean ([1]; Non-perfused, 6 hrs): 200333
- raw response (Data Point) ([1]; Non-perfused, 6 hrs): 191000 and 195000 and 215000
- %stability ([QST], % of control, Mean) ([1]; Non-perfused, 24 hrs): 47.8%
- raw response, Mean ([1]; Non-perfused, 24 hrs): 127667
- raw response (Data Point) ([1]; Non-perfused, 24 hrs): 125000 and 131000 and 127000
- %stability ([QST], % of control, Mean) ([1]; Perfused, 0 hrs): 100.0%
- raw response, Mean ([1]; Perfused, 0 hrs): 236333
- raw response (Data Point) ([1]; Perfused, 0 hrs): 245000 and 242000 and 222000
- %stability ([QST], % of control, Mean) ([1]; Perfused, 2 hrs): 98.7%
- raw response, Mean ([1]; Perfused, 2 hrs): 233333
- raw response (Data Point) ([1]; Perfused, 2 hrs): 232000 and 236000
- %stability ([QST], % of control, Mean) ([1]; Perfused, 6 hrs): 97.6%
- raw response, Mean ([1]; Perfused, 6 hrs): 230667
- raw response (Data Point) ([1]; Perfused, 6 hrs): 232000 and 230000
- %stability ([QST], % of control, Mean) ([1]; Perfused, 24 hrs): 84.9%
- raw response, Mean ([1]; Perfused, 24 hrs): 200667
- raw response (Data Point) ([1]; Perfused, 24 hrs): 203000 and 196000
